Columns and labels:
Mus musculus [1] = test: In vivo inhibitory activity against BxPC-3 tumor xenograft of pancreas in nude mice at a concentration of 2 mg/kg for 10 days; format: functional
PC-8 = test: In vitro tumor cell growth inhibitory activity against Human lung (adenocarcinoma) cell lines. PC-8; format: functional, cell-based
[2] = system: KATO III stomach cancer cell line; test: In vitro tumor cell growth inhibitory activity of Human stomach (adenocarcinoma) cell lines. KATO-III; format: functional, cell-based
NCI-H82 (Homo sapiens) = test: In vitro tumor cell growth inhibitory activity against Human lung small-cell carcinoma cellc) NCI-H-82
NAKAJIMA = test: In vitro tumor cell growth inhibitory activity against Human stomach (adenocarcinoma) cell lines. h) NAKAJIMA; format: functional, cell-based
MKN-28 = test: In vitro tumor cell growth inhibitory activity against Human stomach (adenocarcinoma) cell lines. MKN-28; format: functional, cell-based
Mus musculus [3] = test: In vivo inhibitory activity against PAN-12 tumor xenograft of pancreas in nude mice at a concentration of 2 mg/kg for 10 days; format: functional
[4] = In vitro tumor cell growth inhibitory activity against Human lung squamous-cell carcinoma cell lines QG-95; format: functional
Mus musculus [5] = test: In vivo inhibitory activity against AZ-521 tumor xenograft of stomach in nude mice at a concentration of 2 mg/kg for 10 days; format: functional
KB [6] = test: In vitro tumor cell growth inhibitory activity against human nasopharyngeal KB cell lines; format: functional, cell-based
MG-63 = test: In vitro tumor cell growth inhibitory activity against Human osteosarcoma cell lines MG-63.; format: functional, cell-based
HT-1080 = test: In vitro tumor cell growth inhibitory activity against Human fibrosarcoma HT1080 cell lines.; format: functional, cell-based
Mus musculus [7] = test: In vivo inhibitory activity against Hucc-T1 cells tumor xenograft of bile duct in nude mice at a concentration of 2 mg/kg for 10 days; format: functional
Mus musculus [8] = test: In vivo inhibitory activity against H-31 cells tumor xenograft of breast in nude mice at a concentration of 2 mg/kg for 10 days; format: functional
PANC-1 = test: In vitro tumor cell growth inhibitory activity against Human pancreas (adenocarcinoma) cell lines. PANC-1; format: functional, cell-based
A-375 = test: In vitro tumor cell growth inhibitory activity against Human melanoma cell lines. A375; format: functional, cell-based
SK-MEL-28 = test: In vitro tumor cell growth inhibitory activity against Human melanoma cell lines. SK-MEL-28; format: functional, cell-based
Mus musculus [9] = test: In vivo inhibitory activity against KM12C tumor xenograft of […] in nude mice at a concentration of 2 mg/kg for 10 days; format: functional
MKN-45 (Homo sapiens) = test: In vitro tumor cell growth inhibitory activity against Human stomach (adenocarcinoma) cell lines. MKN-45
Mus musculus [10] = test: In vivo inhibitory activity against H-81 tumor xenograft of stomach in nude mice at a concentration of 2 mg/kg for 10 days; format: functional
PC-9 = test: In vitro tumor cell growth inhibitory activity against Human lung (adenocarcinoma) cell lines PC-9; format: functional, cell-based
Mus musculus [11] = test: In vivo inhibitory activity against CO-3 tumor xenograft of […] in nude mice at a concentration of 2 mg/kg for 10 days; format: functional
T-24 = test: In vitro tumor cell growth inhibitory activity against Human bladder carcinoma cell lines. T24; format: functional, cell-based
SW480 = test: In vitro tumor cell growth inhibitory activity against Human colon (adenocarcinoma) cell lines. SW-480; format: functional, cell-based
Mus musculus [12] = test: In vivo inhibitory activity against JRC-11 cell tumor xenograft of renal in nude mice at a concentration of 2 mg/kg for 10 days; format: functional
KB [13] = test: In vitro tumor cell growth inhibitory activity against Human melanoma cell lines. KB; format: functional, cell-based
SW48 = test: In vitro tumor cell growth inhibitory activity against Human colon (adenocarcinoma) cell lines. SW-48; format: functional, cell-based
HCT-15 = test: In vitro tumor cell growth inhibitory activity against HCT-15; format: functional, cell-based; conditions: Homo sapiens
[14] = In vitro tumor cell growth inhibitory activity against Human stomach (adenocarcinoma) cell lines STSA-1
YMB-1-E = test: In vitro tumor cell growth inhibitory activity against Human breast (adenocarcinoma) cell lines YMB-1-E.; format: functional, cell-based
MDA-MB-231 = test: In vitro tumor cell growth inhibitory activity against Human breast (adenocarcinoma) cell lines. […]; format: functional, cell-based
HOS = test: In vitro tumor cell growth inhibitory activity against Human osteosarcoma cell lines. HOS; format: functional, cell-based
QG-56 = test: In vitro tumor cell growth inhibitory activity against Human lung squamous-cell carcinoma cell linesQG-56; format: functional, cell-based
KK-47 cell line = test: In vitro tumor cell growth inhibitory activity against Human bladder carcinoma cell lines. kK-47; format: functional, cell-based
Mus musculus [15] = test: In vivo inhibitory activity against NUGC-3 tumor xenograft of stomach in nude mice at a concentration of 2 mg/kg for 10 days; format: functional
ST-KM-1 = test: In vitro tumor cell growth inhibitory activity against Human stomach (adenocarcinoma) cell linesST-KM; format: functional, cell-based
NUGC-4 = test: In vitro tumor cell growth inhibitory activity of Human stomach (adenocarcinoma) cell lines. NUGC-4; format: functional, cell-based
QG-96 = test: In vitro tumor cell growth inhibitory activity against Human lung small-cell carcinoma cellb) QG-96; format: functional, cell-based
A-431 = test: In vitro tumor cell growth inhibitory activity against Human […] A431 cell lines; format: functional, cell-based
NCI-H417 = test: In vitro tumor cell growth inhibitory activity against Human lung small-cell carcinoma cell NCI-H-417; format: functional, cell-based
[16] = system: MIA PaCa-2 (Homo sapiens); test: In vitro tumor cell growth inhibitory activity against Human pancreas (adenocarcinoma) cell Mia-PaCa-2
fLS = test: In vitro tumor cell growth inhibitory activity of Human stomach (adenocarcinoma) cell lines. fLS; format: functional, cell-based
Lu-65 = test: In vitro tumor cell growth inhibitory activity against Human lung large-cell carcinoma Lu-65 cell lines.; format: functional, cell-based
Mus musculus [17] = test: In vivo inhibitory activity against DLD-1 tumor xenograft of […] in nude mice at a concentration of 2 mg/kg for 10 days; format: functional
PC10 = test: In vitro tumor cell growth inhibitory activity against Human lung (adenocarcinoma) cell lines PC-10; format: functional, cell-based
L1210 = test: In vitro tumor cell growth inhibitory activity against mouse leukemia L1210 cell lines.; format: functional, cell-based
QG-90 = test: In vitro tumor cell growth inhibitory activity against Human lung small-cell carcinoma cell lines. QG-90; format: functional, cell-based
MCF7 = test: In vitro tumor cell growth inhibitory activity against Human breast (adenocarcinoma) cell lines. MCF-7; format: functional, cell-based

`C#C[C@]1(O)[C@@H](CO)O[C@@H](n2ccc(=O)[nH]c2=O)[C@@H]1O` gave an Inhibition ratio (Mus musculus [1]) of 35%, an IC50 (PC-8) of 0.33 µM and an IC50 [2] of 0.031 µM. For the same molecule, the IC50 (NCI-H82 (Homo sapiens)) was 0.23 µM, the IC50 (NAKAJIMA) was 0.78 µM and the IC50 (MKN-28) was 0.065 µM. It also gave an Inhibition ratio (Mus musculus [3]) of 81%, an IC50 [4] of 0.28 µM and an Inhibition ratio (Mus musculus [5]) of 81%. For the same molecule, the IC50 (KB [6]) was 0.029 µM, the IC50 (MG-63) was > 1.9 µM and the IC50 (HT-1080) was 0.16 µM. For the same molecule, the Inhibition ratio (Mus musculus [7]) was 64%, the Inhibition ratio (Mus musculus [8]) was 82% and the IC50 (PANC-1) was > 1.9 µM. It also gave an IC50 (A-375) of 0.021 µM, an IC50 (SK-MEL-28) of 0.086 µM and an Inhibition ratio (Mus musculus [9]) of 81%. For the same molecule, the IC50 (MKN-45 (Homo sapiens)) was 0.052 µM, the Inhibition ratio (Mus musculus [10]) was 92% and the IC50 (PC-9) was 0.19 µM. It also gave an Inhibition ratio (Mus musculus [11]) of 90%, an IC50 (T-24) of 0.21 µM and an IC50 (SW480) of 0.34 µM. The Inhibition ratio (Mus musculus [12]) was 75%, the IC50 (KB [13]) was 0.029 µM and the IC50 (SW48) was > 1.9 µM. The IC50 (HCT-15) was 0.075 µM, the IC50 [14] was 1.9 µM and the IC50 (YMB-1-E) was > 1.9 µM. For the same molecule, the IC50 (MDA-MB-231) was > 1.9 µM, the IC50 (HOS) was 1.8 µM and the IC50 (QG-56) was 0.15 µM. For the same molecule, the IC50 (KK-47 cell line) was 0.089 µM, the Inhibition ratio (Mus musculus [15]) was 54% and the IC50 (ST-KM-1) was 0.086 µM. The IC50 (NUGC-4) was 0.22 µM, the IC50 (QG-96) was 0.38 µM and the IC50 (A-431) was 0.29 µM. The IC50 (NCI-H417) was 0.11 µM, the IC50 [16] was 0.054 µM and the IC50 (fLS) was 0.23 µM. The IC50 (Lu-65) was 0.089 µM, the Inhibition ratio (Mus musculus [17]) was 73% and the IC50 (PC10) was > 1.9 µM. For the same molecule, the IC50 (L1210) was 0.13 µM, the IC50 (QG-90) was 1 µM and the IC50 (MCF7) was 0.2 µM.

From ChEMBL document CHEMBL1129576, “Nucleosides and nucleotides. 158. 1-(3-C-ethynyl-beta-D-ribo-pentofuranosyl)-cytosine, 1-(3-C-ethynyl-beta-D-ribo-pentofuranosyl)uracil, and their nucleobase analogues as new potential multifunctional antitumor nucleosides with a broad spectrum of activity” (J Med Chem, 1996)
